Reference: US20070275962A1, “Heterobicyclic Compounds as Pharmaceutically Active Agents” (GPC BIOTECH AG, priority 2003, published 2007)
Counter-ions that a name gives are not always drawn.

Columns and labels:
[1] = molecular target: T1, RSK1 act. HIS (Homo sapiens, UniProt Q15418); experiment: General kinase assay: RSK1; assay type: biochemical; conditions: concentration 10 μM; read-out: Inhibitory effect on Target RSK1 act. HIS
T1 construct: His
Experimental: (§1) General Assay Protocol for all Kinases [[[…]]] [[[…]]] Reaction Buffer: Final Assay Concentrations: [[[…]]] Pipetting Sequence: • 1) Add 8 μl 50 μM MBP in Reaction Buffer to each well of Assay Plate • 2) Add 10 μl 500 mM EDTA in H2O to C- wells • 3) Add 8 μl 62.5 μCi/ml Adenosine 5'-[γ-^33P]triphosphate+5 μM ATP in Reaction Buffer to each well • 4) Add 8 μl 5 fold concentrated inhibitor in 5% DMSO in Reaction Buffer to each well except to C- and C+ wells • 5) Add 8 μl 5% DMSO in Reaction Buffer to C- and C+ wells • 6) Add 8 μl 5 fold concentrated kinase in Reaction Buffer to each well • 7) Incubate 1 hr at room temperature • 8) Add 10 μl 50 mM EDTA in H2O to each well except to C- wells • 9) Prepare MAPH plates by adding 200 μl 0.75% H3PO4 to each well • 10) Exhaust 0.75% H3PO4 using Millipore vacuum station • 11) Add 60 μl 0.75% H3PO4 to each well of MAPH Filter Plate • 12) Transfer 30 μl sample per well from Assay Plate to corresponding well of MAPH Filter Plate • 13) Incubate 30 min at room temperature • 14) Wash each well of MAPH Filter Plates 3× with 200 μl 0.75% H3PO4 using Millipore vacuum station • 15) Add 20 μl Szintilation Liquid to each well of MAPH Filter Plate • 16) Seal MAPH Filter Plate • 17) Store MAPH Filter Plate 30 min in darkness • 18) Quantify radioactivity

[2] = molecular target: T2, Jnk1a1 HIS (Homo sapiens, UniProt P45983); experiment: General kinase assay: Jnk1a1; assay type: biochemical; conditions: concentration 10 μM; read-out: Inhibitory effect on Target Jnk1a1 HIS
T2 construct: His
T2 sequence (P45983 1-384 isoform P45983-2): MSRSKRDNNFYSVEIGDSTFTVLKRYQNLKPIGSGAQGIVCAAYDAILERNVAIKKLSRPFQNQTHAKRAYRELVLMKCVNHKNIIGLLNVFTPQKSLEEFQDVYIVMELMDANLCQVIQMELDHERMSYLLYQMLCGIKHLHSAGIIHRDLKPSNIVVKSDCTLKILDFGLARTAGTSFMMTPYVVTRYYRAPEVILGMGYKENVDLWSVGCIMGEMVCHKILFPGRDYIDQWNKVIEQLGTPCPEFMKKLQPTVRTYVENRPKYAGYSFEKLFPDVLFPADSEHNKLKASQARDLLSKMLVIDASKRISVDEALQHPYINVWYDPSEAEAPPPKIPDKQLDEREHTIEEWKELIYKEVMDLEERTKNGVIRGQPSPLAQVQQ
Experimental: as §1

[3] = molecular target: T3, EGFR GST-HIS (Homo sapiens, UniProt P00533); experiment: General kinase assay: EGFR; assay type: biochemical; conditions: concentration 10 μM; read-out: Inhibitory effect on Target EGFR GST-HIS
T3 construct: GST; His
T3 sequence (P00533 25-1210): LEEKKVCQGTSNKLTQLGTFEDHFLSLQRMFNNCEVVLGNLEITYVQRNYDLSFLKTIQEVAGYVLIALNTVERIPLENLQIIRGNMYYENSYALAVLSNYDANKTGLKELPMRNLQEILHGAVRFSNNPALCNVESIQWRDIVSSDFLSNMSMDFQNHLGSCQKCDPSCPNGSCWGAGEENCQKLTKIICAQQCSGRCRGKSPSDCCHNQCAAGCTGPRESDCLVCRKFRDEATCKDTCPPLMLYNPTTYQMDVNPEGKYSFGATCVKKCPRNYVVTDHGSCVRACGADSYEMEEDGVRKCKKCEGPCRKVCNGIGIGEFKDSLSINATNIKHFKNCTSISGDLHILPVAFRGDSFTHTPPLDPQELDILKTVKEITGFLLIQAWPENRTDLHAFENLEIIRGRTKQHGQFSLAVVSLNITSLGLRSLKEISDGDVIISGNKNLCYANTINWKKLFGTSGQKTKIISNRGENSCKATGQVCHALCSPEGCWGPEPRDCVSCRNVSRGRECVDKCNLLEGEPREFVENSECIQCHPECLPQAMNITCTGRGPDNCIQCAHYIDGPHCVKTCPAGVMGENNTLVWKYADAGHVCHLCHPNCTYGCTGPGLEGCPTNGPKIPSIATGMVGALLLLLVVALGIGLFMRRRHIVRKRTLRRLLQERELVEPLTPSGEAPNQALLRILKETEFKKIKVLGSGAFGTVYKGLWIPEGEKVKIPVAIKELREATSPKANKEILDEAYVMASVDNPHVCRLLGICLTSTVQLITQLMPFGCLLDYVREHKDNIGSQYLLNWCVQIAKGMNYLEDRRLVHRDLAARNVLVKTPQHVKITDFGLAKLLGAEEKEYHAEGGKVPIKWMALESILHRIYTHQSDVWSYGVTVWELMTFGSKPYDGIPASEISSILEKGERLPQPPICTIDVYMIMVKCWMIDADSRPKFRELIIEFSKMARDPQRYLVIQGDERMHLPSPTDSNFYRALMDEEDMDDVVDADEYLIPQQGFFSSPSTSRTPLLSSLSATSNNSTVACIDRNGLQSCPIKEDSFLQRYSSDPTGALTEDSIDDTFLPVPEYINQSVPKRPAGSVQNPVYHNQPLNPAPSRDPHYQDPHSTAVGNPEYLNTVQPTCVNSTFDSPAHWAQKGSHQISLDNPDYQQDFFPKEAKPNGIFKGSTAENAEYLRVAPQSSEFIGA
Experimental: as §1

[4] = test system: p70S6K HIS; experiment: General kinase assay: p70S6K; assay type: biochemical; conditions: concentration 10 μM
Experimental: as §1

[5] = molecular target: T4, CK1-alpha GST (Homo sapiens, UniProt P48729); experiment: General kinase assay: CK1-alpha; assay type: biochemical; conditions: concentration 10 μM; read-out: Inhibitory effect on Target CK1-alpha GST
T4 construct: GST
T4 sequence (P48729 whole entry): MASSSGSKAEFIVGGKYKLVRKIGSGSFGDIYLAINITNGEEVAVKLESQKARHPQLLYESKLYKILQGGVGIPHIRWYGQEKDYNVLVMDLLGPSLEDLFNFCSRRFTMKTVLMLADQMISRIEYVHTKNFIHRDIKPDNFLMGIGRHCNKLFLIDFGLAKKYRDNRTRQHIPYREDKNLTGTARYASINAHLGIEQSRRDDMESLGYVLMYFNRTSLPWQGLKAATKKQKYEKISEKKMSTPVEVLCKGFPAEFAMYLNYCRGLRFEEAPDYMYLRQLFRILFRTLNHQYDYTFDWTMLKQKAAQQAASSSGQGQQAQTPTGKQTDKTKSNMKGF
Experimental: as §1

[6] = molecular target: T5, GSK-3beta HIS (Homo sapiens, UniProt P49841); experiment: General kinase assay: GSK-3beta; assay type: biochemical; conditions: concentration 10 μM; read-out: Inhibitory effect on Target GSK-3beta HIS
T5 construct: His
T5 sequence (P49841 whole entry): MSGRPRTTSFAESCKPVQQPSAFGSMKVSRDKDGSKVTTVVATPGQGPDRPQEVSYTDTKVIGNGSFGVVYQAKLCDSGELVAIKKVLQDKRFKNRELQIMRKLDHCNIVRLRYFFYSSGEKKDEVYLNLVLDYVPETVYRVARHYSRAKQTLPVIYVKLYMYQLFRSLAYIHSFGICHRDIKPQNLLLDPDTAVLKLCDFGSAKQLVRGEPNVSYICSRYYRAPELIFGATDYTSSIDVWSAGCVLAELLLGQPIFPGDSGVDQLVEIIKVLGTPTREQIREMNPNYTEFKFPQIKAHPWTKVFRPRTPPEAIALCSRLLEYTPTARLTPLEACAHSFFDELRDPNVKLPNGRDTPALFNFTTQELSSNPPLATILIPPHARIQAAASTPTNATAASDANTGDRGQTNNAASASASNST
Experimental: as §1

[7] = molecular target: T6, c-Src HIS (Homo sapiens, UniProt P12931); experiment: General kinase assay: c-Src; assay type: biochemical; conditions: concentration 10 μM; read-out: Inhibitory effect on Target c-Src HIS
T6 construct: His
Experimental: as §1

[8] = molecular target: T7, Kit human GST (Homo sapiens, UniProt P10721); experiment: General kinase assay: Kit; assay type: biochemical; conditions: concentration 10 μM; read-out: Inhibitory effect on Target Kit human GST
T7 construct: GST
Experimental: as §1

[9] = molecular target: T8, SRPK1 GST (Homo sapiens, UniProt Q96SB4); experiment: General kinase assay: SRPK1; assay type: biochemical; conditions: concentration 10 μM; read-out: Inhibitory effect on Target SRPK1 GST
T8 construct: GST
T8 sequence (Q96SB4 whole entry): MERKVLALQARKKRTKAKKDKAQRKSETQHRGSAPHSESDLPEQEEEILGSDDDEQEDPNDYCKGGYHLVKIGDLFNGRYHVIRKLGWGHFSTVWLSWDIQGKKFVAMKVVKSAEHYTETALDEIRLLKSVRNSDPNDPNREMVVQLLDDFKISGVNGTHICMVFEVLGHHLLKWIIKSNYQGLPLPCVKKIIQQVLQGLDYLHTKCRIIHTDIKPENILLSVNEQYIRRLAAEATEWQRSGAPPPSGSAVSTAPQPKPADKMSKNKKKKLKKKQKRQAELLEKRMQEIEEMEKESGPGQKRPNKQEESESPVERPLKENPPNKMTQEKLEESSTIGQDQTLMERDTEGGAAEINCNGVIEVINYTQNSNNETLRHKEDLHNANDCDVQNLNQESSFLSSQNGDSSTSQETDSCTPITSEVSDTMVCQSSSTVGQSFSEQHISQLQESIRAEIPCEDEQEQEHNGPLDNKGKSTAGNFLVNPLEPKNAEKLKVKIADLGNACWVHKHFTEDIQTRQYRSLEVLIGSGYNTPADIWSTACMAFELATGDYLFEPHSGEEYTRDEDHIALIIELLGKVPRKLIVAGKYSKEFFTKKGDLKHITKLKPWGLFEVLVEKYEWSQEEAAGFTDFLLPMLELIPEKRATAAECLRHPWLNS
Experimental: as §1

[10] = molecular target: CDK2/CycA (Homo sapiens, UniProt P24941); experiment: General kinase assay: CDK2/CycA; assay type: biochemical; conditions: concentration 10 μM; read-out: Inhibitory effect on Target CDK2/CycA
Experimental: as §1

[11] = molecular target: T9, ROCK2 human HIS (Homo sapiens, UniProt O75116); experiment: General kinase assay: ROCK2; assay type: biochemical; conditions: concentration 10 μM; read-out: Inhibitory effect on Target ROCK2 human HIS
T9 construct: His
Experimental: as §1

[12] = molecular target: T10, RICK-STREP 1 (Homo sapiens, UniProt O43353); experiment: General kinase assay: RICK; assay type: biochemical; conditions: concentration 10 μM; read-out: Inhibitory effect on Target RICK-STREP 1
T10 construct: Strep
T10 sequence (O43353 whole entry): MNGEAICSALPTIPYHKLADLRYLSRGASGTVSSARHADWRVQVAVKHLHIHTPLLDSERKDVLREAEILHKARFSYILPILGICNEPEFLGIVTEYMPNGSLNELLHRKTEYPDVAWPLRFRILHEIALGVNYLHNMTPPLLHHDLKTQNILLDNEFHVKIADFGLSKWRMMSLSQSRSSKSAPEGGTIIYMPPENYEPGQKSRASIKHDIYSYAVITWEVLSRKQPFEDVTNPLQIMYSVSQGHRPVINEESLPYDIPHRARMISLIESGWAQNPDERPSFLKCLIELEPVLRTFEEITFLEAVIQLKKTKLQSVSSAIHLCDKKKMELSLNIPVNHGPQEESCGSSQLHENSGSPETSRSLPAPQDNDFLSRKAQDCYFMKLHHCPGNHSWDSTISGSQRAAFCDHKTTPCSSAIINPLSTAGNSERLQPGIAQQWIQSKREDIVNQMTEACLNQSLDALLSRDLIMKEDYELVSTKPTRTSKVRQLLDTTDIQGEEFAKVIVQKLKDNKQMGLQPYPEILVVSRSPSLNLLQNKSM
Experimental: as §1

[13] = molecular target: T11, PDGFRbeta GST (Homo sapiens, UniProt P09619); experiment: General kinase assay: PDGFRbeta; assay type: biochemical; conditions: concentration 10 μM; read-out: Inhibitory effect on Target PDGFRbeta GST
T11 construct: GST
T11 sequence (P09619 33-1106): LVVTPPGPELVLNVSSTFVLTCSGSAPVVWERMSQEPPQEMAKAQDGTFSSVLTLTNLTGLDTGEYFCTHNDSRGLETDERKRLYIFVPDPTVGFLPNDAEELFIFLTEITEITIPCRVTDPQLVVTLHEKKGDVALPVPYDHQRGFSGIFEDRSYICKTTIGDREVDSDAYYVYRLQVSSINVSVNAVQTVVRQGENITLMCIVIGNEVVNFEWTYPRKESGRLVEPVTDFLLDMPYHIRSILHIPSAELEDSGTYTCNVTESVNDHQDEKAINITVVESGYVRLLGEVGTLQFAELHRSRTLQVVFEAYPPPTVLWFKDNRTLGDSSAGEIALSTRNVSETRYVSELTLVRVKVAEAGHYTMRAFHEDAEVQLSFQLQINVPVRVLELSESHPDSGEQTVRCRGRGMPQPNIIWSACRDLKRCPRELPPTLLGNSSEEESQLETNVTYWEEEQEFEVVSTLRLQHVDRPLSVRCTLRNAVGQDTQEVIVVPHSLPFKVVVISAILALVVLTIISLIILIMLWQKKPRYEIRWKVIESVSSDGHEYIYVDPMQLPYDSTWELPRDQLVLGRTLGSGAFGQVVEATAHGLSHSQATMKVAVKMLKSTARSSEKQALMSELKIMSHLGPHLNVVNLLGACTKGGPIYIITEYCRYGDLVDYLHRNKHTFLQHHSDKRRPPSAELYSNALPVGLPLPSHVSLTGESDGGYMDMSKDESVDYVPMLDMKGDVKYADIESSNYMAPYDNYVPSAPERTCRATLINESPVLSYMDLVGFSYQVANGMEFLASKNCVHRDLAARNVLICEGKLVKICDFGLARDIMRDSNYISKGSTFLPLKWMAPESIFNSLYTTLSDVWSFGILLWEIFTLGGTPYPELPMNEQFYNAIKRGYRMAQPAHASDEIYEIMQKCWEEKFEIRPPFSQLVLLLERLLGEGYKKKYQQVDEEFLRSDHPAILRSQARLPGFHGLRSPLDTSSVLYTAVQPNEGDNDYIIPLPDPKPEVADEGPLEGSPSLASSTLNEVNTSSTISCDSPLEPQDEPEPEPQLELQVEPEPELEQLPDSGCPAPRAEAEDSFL
Experimental: as §1

[14] = molecular target: T12, cMet GST-HIS (Homo sapiens, UniProt P08581); experiment: General kinase assay: cMet; assay type: biochemical; conditions: concentration 10 μM; read-out: Inhibitory effect on Target cMet GST-HIS
T12 construct: GST; His
Experimental: as §1

[15] = molecular target: T13, IKKbeta HIS (Homo sapiens, UniProt O14920); experiment: General kinase assay: IKKbeta; assay type: biochemical; conditions: concentration 10 μM; read-out: Inhibitory effect on Target IKKbeta HIS
T13 construct: His
T13 sequence (O14920 1-756): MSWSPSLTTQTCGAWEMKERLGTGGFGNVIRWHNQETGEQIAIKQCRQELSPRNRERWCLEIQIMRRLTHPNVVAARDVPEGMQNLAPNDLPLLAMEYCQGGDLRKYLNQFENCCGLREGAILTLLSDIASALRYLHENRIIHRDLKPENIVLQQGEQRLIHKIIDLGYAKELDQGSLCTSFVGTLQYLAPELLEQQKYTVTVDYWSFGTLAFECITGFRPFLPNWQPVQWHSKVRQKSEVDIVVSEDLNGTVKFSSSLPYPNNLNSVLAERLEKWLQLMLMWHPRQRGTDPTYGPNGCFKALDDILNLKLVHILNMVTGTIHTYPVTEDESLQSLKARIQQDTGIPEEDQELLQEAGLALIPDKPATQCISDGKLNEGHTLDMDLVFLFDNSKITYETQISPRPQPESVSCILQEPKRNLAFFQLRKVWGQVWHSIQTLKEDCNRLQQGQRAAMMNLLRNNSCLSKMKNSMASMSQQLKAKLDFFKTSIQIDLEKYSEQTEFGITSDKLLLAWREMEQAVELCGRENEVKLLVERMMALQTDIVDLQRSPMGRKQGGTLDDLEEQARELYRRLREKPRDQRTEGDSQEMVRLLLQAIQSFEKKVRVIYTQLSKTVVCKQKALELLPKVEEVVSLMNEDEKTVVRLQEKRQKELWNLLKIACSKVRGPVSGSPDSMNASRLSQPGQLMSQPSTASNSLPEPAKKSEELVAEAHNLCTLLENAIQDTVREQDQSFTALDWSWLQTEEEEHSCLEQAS
Experimental: as §1

[16] = molecular target: T14, InsR GST (Homo sapiens, UniProt P06213); experiment: General kinase assay: InsR; assay type: biochemical; conditions: concentration 10 μM; read-out: Inhibitory effect on Target InsR GST
T14 construct: GST
Experimental: as §1

[17] = molecular target: T15, AKT1/PKBa act. HIS (Homo sapiens, UniProt P31749); experiment: General kinase assay (MBP, 33P-ATP, filter plate): AKT1/PKBa; assay type: biochemical; conditions: concentration 10 μM; read-out: Inhibitory effect on Target AKT1/PKBa act. HIS
T15 construct: His
Experimental: as §1

Row | melting point | SMILES | inhibition at 10 µM [1] | inhibition at 10 µM [2] | inhibition at 10 µM [3] | Inhibitory effect on Target p70S6K HIS [4] | inhibition at 10 µM [5] | inhibition at 10 µM [6] | inhibition at 10 µM [7] | inhibition at 10 µM [8] | inhibition at 10 µM [9] | inhibition at 10 µM [10] | inhibition at 10 µM [11] | inhibition at 10 µM [12] | inhibition at 10 µM [13] | inhibition at 10 µM [14] | inhibition at 10 µM [15] | inhibition at 10 µM [16] | inhibition at 10 µM [17]
1 | 212 to 213 °C | NC(=O)c1c(NC(=O)Nc2ccccc2)sc2c1CCC1(C2)OCCO1 (as salt: HCl) [Compound D199, 2-[(Anilinocarbonyl)amino]-4,7-dihydro-5H-spiro[1-benzothiophene-6,2′-[1,3]dioxolane]-3-carboxamide] |  |  |  |  |  |  |  |  |  |  |  |  |  |  |  |  | 
2 |  | NC(=O)c1c(NC(=O)Nc2ccccc2)sc2cc(O)ccc12 [Compound A12, 6-Hydroxy-2-(3-phenyl-ureido)-benzo[b]thiophene-3-carboxylic acid amide] | > 50% | > 50% | > 50% | + (+ = >50% inhibition at concentration 10 μM) | > 50% | > 50% | > 50% | > 50% | > 50% | > 50% | > 50% | > 50% | > 50% |  |  |  | 
3 |  | NC(=O)c1c(NC(=O)C2CC2)sc2c(O)c(Br)ccc12 [Compound A15, 6-Bromo-2-(cyclopropanecarbonyl-amino)-7-hydroxy-benzo[b]thiophene-3-carboxylic acid amide] |  | > 50% | > 50% | + (+ = >50% inhibition at concentration 10 μM) | > 50% | > 50% |  |  | > 50% |  |  | > 50% | > 50% | > 50% |  |  | 
4 |  | CC1CC1C(=O)Nc1sc2c(Cl)c(O)ccc2c1C(N)=O (stereo not drawn) [Compound A37, 7-Chloro-6-hydroxy-2-[(2-methyl-cyclopropanecarbonyl)-amino]-benzo[b]thiophene-3-carboxylic acid amide] | > 50% | > 50% | > 50% | + (+ = >50% inhibition at concentration 10 μM) | > 50% | > 50% |  | > 50% | > 50% | > 50% |  | > 50% | > 50% |  | > 50% | > 50% | > 50%
5 | 250 to 254 °C | NC(=O)c1c(NC(=O)C2CC2)sc2c(Cl)c(OCCO)c(Cl)cc12 [Compound A49, 5,7-Dichloro-2-(cyclopropanecarbonyl-amino)-6-(2-hydroxyethoxy)-benzo[b]thiophene-3-carboxylic acid amide] |  |  |  |  |  |  |  |  |  |  |  |  |  |  |  |  | 
6 | 235 to 240 °C | CCOC(=O)Nc1sc2c(Cl)c(O)c(Cl)cc2c1C(N)=O [Compound A120, (3-Carbamoyl-5,7-dichloro-6-hydroxy-benzo[b]thiophen-2-yl)-carbamic acid ethyl ester] |  |  |  |  |  |  |  |  |  |  |  |  |  |  |  |  | 
